Reference: ChEMBL document CHEMBL5126640, “Sanggenon C Suppresses Tumorigenesis of Gastric Cancer by Blocking ERK-Drp1-Mediated Mitochondrial Fission” (J Nat Prod, 2022)
pIC50: −log10 of the molar value. Activity calls are given as the source filed them. No cut-off for these calls is given here.

Experiments:
HGC-27 [1] = experiment: Antiproliferative activity against human HGC-27 cells assessed as reduction in cell growth measured after 24 hrs by CCK8 assay; format: functional, cell-based; conditions: HGC-27, 24 h
HGC-27 [2] = experiment: Induction of cell cycle arrest in human HGC-27 cells assessed as accumulation of cells at G0/G1 phase at 6 uM incubated for 24 hrs propidium iodide staining-based flow cytometric analysis (reference value: 45.21%); format: functional
AGS [3] = experiment: Induction of cell cycle arrest in human AGS cells assessed as accumulation of cells at G0/G1 phase at 8 uM incubated for 24 hrs propidium iodide staining-based flow cytometric analysis (reference value: 46.51%); format: functional
HGC-27 [4] = experiment: Induction of cell cycle arrest in human HGC-27 cells assessed as decrease in CDK4 level at 0 to 10 uM by Western blot analysis; format: functional, cell-based; conditions: dose 0-10 µM
HGC-27 [5] = experiment: Induction of cell cycle arrest in human HGC-27 cells assessed as decrease in Cyclin D1 level at 0 to 10 uM by Western blot analysis; format: functional, cell-based; conditions: dose 0-10 µM
AGS [6] = experiment: Induction of cell cycle arrest in human AGS cells assessed as decrease in CDK4 level at 0 to 10 uM by Western blot analysis; format: functional, cell-based; conditions: dose 0-10 µM
HGC-27 [7] = experiment: Induction of apoptosis in human HGC-27 cells assessed as late apoptotic cells at 6 uM measured after 24 hrs by AnnexinV-FITC/PI staining based flowcytometry method (reference value: 5.4%); format: functional
HGC-27 [8] = experiment: Induction of apoptosis in human HGC-27 cells assessed as late apoptotic cells at 10 uM measured after 24 hrs by AnnexinV-FITC/PI staining based flowcytometry method (reference value: 5.4%); format: functional
HGC-27 [9] = experiment: Induction of apoptosis in human HGC-27 cells assessed as necrotic cells at 6 uM measured after 24 hrs by AnnexinV-FITC/PI staining based flowcytometry method (reference value: 0.2%); format: functional
HGC-27 [10] = experiment: Induction of apoptosis in human HGC-27 cells assessed as necrotic cells at 10 uM measured after 24 hrs by AnnexinV-FITC/PI staining based flowcytometry method (reference value: 0.2%); format: functional
AGS [11] = experiment: Induction of apoptosis in human AGS cells assessed as early apoptotic cells at 6 uM measured after 24 hrs by AnnexinV-FITC/PI staining based flowcytometry method (reference value: 1.2%); format: functional
AGS [12] = experiment: Induction of apoptosis in human AGS cells assessed as late apoptotic cells at 6 uM measured after 24 hrs by AnnexinV-FITC/PI staining based flowcytometry method (reference value: 3.4%); format: functional
AGS [13] = experiment: Induction of apoptosis in human AGS cells assessed as necrotic cells at 8 uM measured after 24 hrs by AnnexinV-FITC/PI staining based flowcytometry method (reference value: 0.2%); format: functional
AGS [14] = experiment: Induction of apoptosis in human AGS cells assessed as necrotic cells at 10 uM measured after 24 hrs by AnnexinV-FITC/PI staining based flowcytometry method (reference value: 0.2%); format: functional
AGS [15] = experiment: Induction of apoptosis in human AGS cells assessed as increase in cleaved caspase-9 level at 0 to 10 uM by Western blot analysis; format: functional, cell-based; conditions: dose 0-10 µM
AGS [16] = experiment: Induction of apoptosis in human AGS cells assessed as increase in cleaved caspase-3 level at 0 to 10 uM by Western blot analysis; format: functional, cell-based; conditions: dose 0-10 µM
AGS [17] = experiment: Induction of mitochondrial dysfunction in human AGS cells assessed as decrease in mitochondrial membrane potential measured after 24 hrs by JC-1 staining based flow cytometry; format: functional, cell-based; conditions: DDE = dose-dependent effect
HGC-27 [18] = experiment: Induction of apoptosis in human HGC-27 cells assessed as upregulation of Bax level at 0 to 10 uM by Western blot analysis; format: functional, cell-based; conditions: dose 0-10 µM
HGC-27 [19] = experiment: Inhibition of mitochondrial fission in human HGC-27 cells assessed as reduction in punctiform mitochondria at 0 to 6 uM measured after 24 hrs by mitotracker based confocal microscopy; format: functional; conditions: dose 0-6 µM
AGS [20] = experiment: Induction of apoptosis in human AGS cells assessed as early apoptotic cells measured after 24 hrs by AnnexinV-FITC/PI staining based flow cytometry method (reference value: 2%); format: functional
HGC-27 [21] = experiment: Inhibition of mitochondrial fission in human HGC-27 cells assessed as reduction in mitochondrial elongated fragments at 0 to 6 uM measured after 24 hrs by mitotracker based confocal microscopy; format: functional, cell-based; conditions: dose 0-6 µM
AGS [22] = experiment: Induction of apoptosis in human AGS cells assessed as viable cells measured after 24 hrs by AnnexinV-FITC/PI staining based flow cytometry method (reference value: 95.4 %); format: functional
AGS [23] = experiment: Inhibition of mitochondrial fission in human AGS cells assessed as downregulation of p-DRP1 at 0 to 10 uM measured after 24 hrs by Western blot analysis; format: functional, cell-based; conditions: dose 0-10 µM
HGC-27 [24] = experiment: Inhibition of mitochondrial fission in human HGC-27 cells assessed as reduction in ATP content at 0 to 10 uM measured after 24 hrs by microplate reader assay; format: functional, cell-based; conditions: dose 0-10 µM
AGS [25] = experiment: Induction of apoptosis in human AGS cells assessed as late apoptotic cells measured after 24 hrs by AnnexinV-FITC/PI staining based flow cytometry method (reference value: 2.4%); format: functional
AGS [26] = experiment: Induction of apoptosis in human AGS cells assessed as necrotic cells measured after 24 hrs by AnnexinV-FITC/PI staining based flow cytometry method (reference value: 0.1%); format: functional
HGC-27 [27] = experiment: Induction of apoptosis in human HGC-27 cells transfected with pcDNA3.1-Drp1 plasmid to overexpress DRP1 assessed as early apoptotic cells measured after 24 hrs by AnnexinV-FITC/PI staining based flow cytometry method (reference value: 2.1%); format: functional
HGC-27 [28] = experiment: Induction of apoptosis in human HGC-27 cells transfected with pcDNA3.1-Drp1 plasmid to overexpress DRP1 assessed as late apoptotic cells measured after 24 hrs by AnnexinV-FITC/PI staining based flow cytometry method (reference value: 2.0%); format: functional
AGS [29] = experiment: Induction of apoptosis in human AGS cells transfected with pcDNA3.1-Drp1 plasmid to overexpress DRP1 assessed as late apoptotic cells and measured after 24 hrs by AnnexinV-FITC/PI staining based flow cytometry method (reference value: 2.1 %); format: functional
HGC-27 [30] = experiment: Inhibition of ERK signalling pathway in human […] cells assessed as downregulation of p-ERK levels at 0 to 10 uM and measured after 24 hrs by western blot analysis; format: cell-based; conditions: dose 0-10 µM
AGS [31] = experiment: Inhibition of ERK signalling pathway in human AGS cells assessed as downregulation of p-ERK levels at 0 to 10 uM and measured after 24 hrs by western blot analysis; format: cell-based; conditions: dose 0-10 µM
[32] = Toxicity in nude mouse xenografted with human AGS cells assessed as effect on aspartate aminotransferase level at 10 to 20 mg/kg, ip administered every other day and monitored every 3 days; format: organism-based; conditions: in vivo, 72 h, dose 10-20 mg/kg, time 3 day
Mus musculus = experiment: In vivo inhibition of ERK signalling pathway in nude mouse xenografted with human AGS cells assessed as downregulation of p-ERK levels at 10 to 20 mg/kg, ip administered every other day and monitored every 3 days by western blot analysis; format: functional, organism-based; conditions: dose 10-20 mg/kg, time 3.0 day
AGS [33] = experiment: Antitumor activity against human AGS cells xenografted in nude mouse assessed as suppression of tumor burden at 10 to 20 mg/kg, ip administered every other day and monitored every 3 days; format: functional, organism-based; conditions: dose 10-20 mg/kg, time 3.0 day

With `CC(C)=CCC12Oc3cc(O)ccc3C1(O)Oc1cc(O)c([C@H]3C=C(C)C[C@H](c4ccc(O)cc4O)[C@H]3C(=O)c3ccc(O)cc3O)c(O)c1C2=O` (some centres undefined) the pIC50 (HGC-27 [1]) was 5.04, the Activity (HGC-27 [2]) was 61.3% and the Activity (AGS [3]) was 54.9%. For the same compound, the Activity (HGC-27 [4]) was “Active”, the Activity (HGC-27 [5]) was “Active” and the Activity (AGS [6]) was “Active”. For the same compound, the Activity (HGC-27 [7]) was 10%, the Activity (HGC-27 [8]) was 15.9% and the Activity (HGC-27 [9]) was 1.5%. It also gave an Activity (HGC-27 [10]) of 1.3%, an Activity (AGS [11]) of 1.7% and an Activity (AGS [12]) of 7.9%. For the same compound, the Activity (AGS [13]) was 0.3%, the Activity (AGS [14]) was 0.3% and the Activity (AGS [15]) was “Active”. The Activity (AGS [16]) was “Active”, the Activity (AGS [17]) was “Dde” and the Activity (HGC-27 [18]) was “Active”. For the same compound, the inhibition (HGC-27 [19]) was “Active”, the Activity (AGS [20]) was 3.5% and the inhibition (HGC-27 [21]) was “Active”. The Activity (AGS [22]) was 88.8%, the inhibition (AGS [23]) was “Active” and the inhibition (HGC-27 [24]) was “Active”. It also gave an Activity (AGS [25]) of 7.6%, an Activity (AGS [26]) of 0.1% and an Activity (HGC-27 [27]) of 2.4%. For the same compound, the Activity (HGC-27 [28]) was 1.8%, the Activity (AGS [29]) was 6.8% and the inhibition (HGC-27 [30]) was “Active”. The inhibition (AGS [31]) was “Active”, the Activity [32] was “Non-Toxic” and the inhibition (Mus musculus) was “Active”. The Activity (AGS [33]) was “Active”.
